Literature values as cited in US12295958B2, “Ready-to-use injectable formulations” (Zoetis Services LLC, priority 2019, dated 2025).
Counter-ions that a name gives are not always drawn. Like-named read-outs stand apart in the source and are kept apart here.

Legend:
[1] = system: S. canis; conditions: dogs, single injection, S. canis infections
[2] = system: S. intermedius; conditions: dogs, single injection, S. intermedius infections
[3] = clinical studies
[4] = system: Pasteurella multocide; conditions: cats, single injection, Pasteurella multocide infections

SMILES	time therapeutic drug concentrations are maintained [1]	time therapeutic drug concentrations are maintained [2]	clinical equivalence of a single injection [3]	time therapeutic dose concentrations are provided [4]	caking after transport (0.15% Tween and ethyl oleate, glass bottles, transported by road (about 2 hours) and air (about 1 hour))	caking (PVP K30 in addition with 0.5% Tween 80)	caking (addition of 0.5% Tween)	caking (addition of 0.5% polyethylene glycol-12-oleate)	resuspendability (ethyl oleate suspension without Tween 80)	resuspendability (ethyl oleate, 0.15% Tween 80 as flocculating agent)	dispersability of sediment (increasing concentrations of phospholipids (Lipoid S100), suspensions containing PEG-12-oleate)	caking on vibration (long chain fatty acid mixture with addition of phospholipid)	redispersion after vibration (suspension in mixture of long chain saturated and unsaturated fatty acids)	redispersion after vibration (suspensions in Miglyol 840 and Miglyol 812)
CO/N=C(\C(=O)N[C@@H]1C(=O)N2C(C(=O)O)=C([C@@H]3CCCO3)CS[C@H]12)c1csc(N)n1 [Convenia, (6R,7R)-7-[[(2Z)-(2-amino-4-thiazolyl)(methoxyimino)acetyl]amino]-8-oxo-3-[(2S)-tetrahydro-2-furanyl]-5-thia-1-azabicyclo[4.2.0]oct-2-ene-2-carboxylic acid, monosodium salt]	about 14 days	approximately 7 days	clinically equivalent to a 14-day oral antibiotic regimen	approximately 7 days										
CCN(CC)CCOC(=O)[C@@H]1N2C(=O)[C@@H](NC(=O)Cc3ccccc3)[C@H]2SC1(C)C [penethamate]					“rock solid” cake	did not solve the caking problem	hard cake	prevented caking	required vigorous shaking and vortexing to disperse the cake	good resuspendability	less dispersable sediments	caking on vibration	dispersed readily	difficult to redisperse after vibration
